Test system: SARS-CoV-2
Test: microbe, parasite or virus in culture
Details: Severe acute respiratory syndrome coronavirus 2, Vero C1008, 48 h

Compound | IC50 [µM] | IC50 (read-out: pIC50 (converted)) [µM]
O=C(O)CC[C@H]1CC[C@](c2cc(F)ccc2F)(S(=O)(=O)c2ccc(Cl)cc2)CC1 | > 20 | > 20
CNCCC(Oc1ccc(C(F)(F)F)cc1)c1ccccc1 (stereo not drawn) [FLUOXETINE] | > 20 | > 20
c1ccc2c(SC3=NCCN3)c[nH]c2c1 [TINAZOLINE] | > 20 | > 20
COC(=O)Nc1nc2cc(C(=O)c3ccccc3)ccc2[nH]1 [MEBENDAZOLE] | > 20 | > 20
Nc1ccc(S(=O)(=O)Nc2ncccn2)cc1 [SULFADIAZINE] | > 20 | > 20
CC(C)(C)Cn1c(N)nc2ccc(-c3[nH]c(C(C)(C)C)nc3-c3ccc(F)cc3)nc21 [RALIMETINIB] | > 20 | > 20
O=c1[nH]c(=O)n(C2CC(O)C(CO)O2)cc1Br (stereo not drawn) | > 20 | > 20
CCCN1CCC[C@@H](c2cccc(S(C)(=O)=O)c2)C1 | > 20 | > 20
O=C1CCCC2C3CC(CN12)[C@@H]1CCCCN1C3 (stereo partly drawn) | > 20 | > 20
CCN(CC)CC1CCCCN1CC(=O)N1c2ccccc2C(=O)Nc2cccnc21 (stereo not drawn) [OTENZEPAD] | > 20 | > 20
Cn1c(=O)c2nc[nH]c2n(C)c1=O [THEOPHYLLINE] | > 20 | > 20
NC(=O)CN1CC(c2ccccc2)CC1=O (stereo not drawn) | > 20 | > 20
Cc1c(O)c(=O)n(-c2ccccc2)n1C | > 20 | > 20
Nc1nc(N)c2nc(-c3cccc(O)c3)c(-c3cccc(O)c3)nc2n1 [TG100-115] | > 20 | > 20
CCOC(=O)NC1=C(N2CC2)C(=O)C(NC(=O)OCC)=C(N2CC2)C1=O [DIAZIQUONE] | > 20 | > 20
O=C(NC1CCN(CCCCC2(C(=O)NCC(F)(F)F)c3ccccc3-c3ccccc32)CC1)c1ccccc1-c1ccc(C(F)(F)F)cc1 [LOMITAPIDE] | > 20 | > 20
O=C1CCCO1 [BUTYROLACTONE] | > 20 | > 20
CCCCOc1ccc(CC(=O)NO)cc1 [BUFEXAMAC] | > 20 | > 20
CC(=O)OC1C[C@@]2(C)[C@@H](C[C@@H](O)C3[C@]2(C)CC[C@H]2[C@H](C)[C@H](O)CC[C@]32C)/C1=C(\CCC=C(C)C)C(=O)O (stereo partly drawn) | > 20 | > 20
N#Cc1cc2c(OCC(O)CN3CCN(C(c4ccccc4)c4ccccc4)CC3)cccc2[nH]1 (stereo not drawn) | > 20 | > 20

Compound | IC50 [µM] | IC50 (read-out: pIC50 (converted)) [µM]
CNCC(O)c1cccc(O)c1 (stereo not drawn) | > 20 | > 20
O=C(CC(c1ccccc1)c1ccccc1)N1CCN(C(c2ccccc2)c2ccccc2)CC1 [Z160] | > 20 | > 20
Clc1cc(Cl)c(OCC#CI)cc1Cl [HALOPROGIN] | > 20 | > 20
CCC1(C2OC(C3OC(O)(CO)C(C)CC3C)CC2C)CCC(C2(C)CCC3(CC(O)C(C)C(C(C)C(OC)C(C)C(=O)O)O3)O2)O1 (stereo not drawn) | > 10 | > 10
Cc1cc(O)cc(=O)o1 | > 20 | > 20
CCOC(=O)C1(c2ccccc2)CCN(CCCNc2ccccc2)CC1 [PIMINODINE] | > 20 | > 20
COc1cccc2cc(-c3nc([C@H]4CC[C@H](C(=O)O)CC4)n4ncnc(N)c34)[nH]c12 [OSI-027] | > 20 | > 20
Cc1c(Cn2c(C)nc3c(C(=O)O)cc(N4CCOCC4)cc32)cccc1C(F)(F)F [GSK-2636771] | > 20 | > 20
CCn1c(C(=O)N(C2CC2)C2CC2)cc2c3c(ncn3C)c(Nc3cc(C)n(C)n3)nc21 [BMS-911543] | > 20 | > 20
C[C@]12CCC(=O)C[C@H]1CC[C@@H]1[C@@H]2CC[C@]2(C)[C@@H](C(=O)COC(=O)CCC(=O)O)CC[C@@H]12 [HYDROXYDIONE SUCCINIC ACID] | > 20 | > 20
C[C@@](O)(COc1ccc(C#N)cc1)C(=O)Nc1ccc(C#N)c(C(F)(F)F)c1 | > 20 | > 20
CN(C)CCCN1c2ccccc2CCc2ccc(C#N)cc21 [CIANOPRAMINE] | > 20 | > 20
CN(C)CCC(c1ccccc1)c1ccccn1 (stereo not drawn) [PHENIRAMINE] | > 20 | > 20
Cn1ccnc1S [METHIMAZOLE] | > 20 | > 20
O=C(O)/C=C/C=C/c1ccc2c(c1)OCO2 [PIPERIC ACID] | > 20 | > 20
COc1c2c(cc3c1OCO3)CCN(C)C2 [HYDROCOTARNINE] | > 20 | > 20
Cc1nc(=O)c(C#N)c(NCc2cccnc2)[nH]1 [PELRINONE] | > 20 | > 20
CCCCCCNC(=O)n1cc(F)c(=O)[nH]c1=O [CARMOFUR] | > 20 | > 20
CCCC(=O)O [BUTYRIC ACID] | > 20 | > 20

Reference: ChEMBL document CHEMBL4651402, “Screening of ~5500 FDA-approved drugs and clinical candidates for anti-SARS-CoV-2 activity” (2021)
